According to US9840495B2, “Oxindole derivatives carrying a piperidyl-substituted azetidinyl substituent and use thereof for treating vasopressine-related diseases” (AbbVie Deutschland GmbH & Co. KG, priority 2013, dated 2017):

Columns and labels:
[1] = target: T1, human vasopressin V1b receptor (Homo sapiens, UniProt P47901); assay: biochemical
T1 sequence (P47901 1-424): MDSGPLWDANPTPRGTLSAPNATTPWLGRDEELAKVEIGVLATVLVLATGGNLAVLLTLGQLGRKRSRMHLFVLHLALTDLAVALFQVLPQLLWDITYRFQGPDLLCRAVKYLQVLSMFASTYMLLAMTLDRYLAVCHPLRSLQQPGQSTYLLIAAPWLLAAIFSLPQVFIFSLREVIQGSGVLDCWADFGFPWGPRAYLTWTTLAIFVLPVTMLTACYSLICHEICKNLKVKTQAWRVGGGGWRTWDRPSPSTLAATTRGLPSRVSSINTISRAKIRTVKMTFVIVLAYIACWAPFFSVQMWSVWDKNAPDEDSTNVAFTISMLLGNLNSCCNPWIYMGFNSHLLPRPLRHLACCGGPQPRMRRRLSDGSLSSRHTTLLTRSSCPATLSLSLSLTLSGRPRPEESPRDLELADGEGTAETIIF

[2] = target: human vasopressin V1a receptor (Homo sapiens, UniProt P37288); assay: Vasopressin V1a receptor binding assay (125I-AVP displacement, CHO-K1 membranes); details: selectivity quotient, human V1a vs human V1b receptor binding
human vasopressin V1a receptor, sequence (P37288 whole entry): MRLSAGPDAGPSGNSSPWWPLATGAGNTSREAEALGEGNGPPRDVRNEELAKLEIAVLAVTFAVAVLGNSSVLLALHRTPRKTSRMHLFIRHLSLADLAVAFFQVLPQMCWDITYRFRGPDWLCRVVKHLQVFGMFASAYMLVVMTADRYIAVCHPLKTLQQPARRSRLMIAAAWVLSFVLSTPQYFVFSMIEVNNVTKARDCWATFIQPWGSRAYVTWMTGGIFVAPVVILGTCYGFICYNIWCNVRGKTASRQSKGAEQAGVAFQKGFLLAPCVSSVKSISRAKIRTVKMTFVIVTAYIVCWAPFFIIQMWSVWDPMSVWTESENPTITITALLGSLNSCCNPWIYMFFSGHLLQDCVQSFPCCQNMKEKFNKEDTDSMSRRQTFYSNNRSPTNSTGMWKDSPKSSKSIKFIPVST

Ki [1]: 1 to 10 nM | Ki(h-V1a)/Ki(h-V1b) [2]: +++ (>75)
SMILES: CCOc1ncccc1[C@]1(NC(=O)N2CC(N3CCC(N4CC(OC)C4)CC3)C2)C(=O)N(S(=O)(=O)c2ccc(OC)cc2OC)c2ccc(C#N)cc21 [Example 41, (S)—N-(5-Cyano-1-((2,4-dimethoxyphenyl)sulfonyl)-3-(2-ethoxypyridin-3-yl)-2-oxoindolin-3-yl)-3-(4-(3-methoxyazetidin-1-yl)piperidin-1-yl)azetidine-1-carboxamide]
